Experimental data reported in patent US20090054333A1, “Peptide inhibitors of cyclin-dependent kinase activity and uses thereof” (priority 2006, published 2009).
Entries after “also recorded” stand apart in the source; their conditions may differ.

How the values were obtained:
[1] = target: cdk2; experiment: in vitro cdk2 kinase assay with GST-fusion proteins, histone H1 substrate; format: biochemical; parameters: key to Kinase assay (inhibitory effect on cdk2 activity): P=positive; N=negative; conditions: for Kinase assay (inhibitory effect on cdk2 activity): 0.1 μg GST-fusion protein, cdk2 immunoprecipitated from NIH/3T3; for inhibitory effect on cdk2 activity / histone H1 phosphorylation in vitro: GST-fusion protein added to cdk2 immunoprecipitate from NIH/3T3
Description: Constructs preparation: A prokaryotic expression vector pGEX-2T (Stratagene Inc., La Jolla Calif.) and polymerase chain reaction (PCR) were used to generate chimeric Glutathione-S-Transferase constructs. The primers used by PCR to amplify the fragments that were subcloned in the pGEX-2T were derived from the 5′ and 3′ ends of different regions of the spacer domain of […]. The mammalian expression vector pEF6/V5-His TOPO (Invitrogen Corp, Carlsbad, Calif.) was used to generate the constructs pEF6/V5-His-spacer and pEF6/V5-His-310 that express the correspondent genes with a C-terminal V5 epitope. The spacer and the 310 fragments were PCR-amplified with the respective primers (Table 1) to generate 3′ends of the cDNAs without stop codons and were subsequently subcloned into pEF6/V5-His TOPO (Invitrogen Corp, Carlsbad, Calif.) according to the manufacturer's instructions to obtain cDNAs coding for C-terminal fusion proteins. All generated constructs were confirmed by automated sequencing. Information regarding the primers is available upon request.
GST Fusion protein preparation: XL1-Blue bacteria carrying the pGEX-2T vectors were grown to mid log phase and then induced to express protein by adding 0.25 mM of isopropyl-1-thio-β-D-galactopyranoside (IPTG, Roche Applied Science, Indianapolis, Ind.). The cultures were shaken for 4 h; bacteria were then pelleted and resuspended in NENT buffer (20 mM Tris pH 8, 100 mM NaCl, 1 mM EDTA, 0.5% NP-40). Cell suspensions were sonicated, pelleted and the supernatant collected. The remaining bacteria were then resuspended in NENT buffer plus 2% of N-Lauryl-Sarcosine, pelleted and the supernatants were collected again. The combined supernatants were incubated with Glutathione agarose (Amersham Biosciences, Piscataway, N.J.) overnight at 4° C. The agarose was then pelleted and washed three times in NENT buffer.
Kinase assays: Cell lysates from NIH/3T3 were prepared by resuspending pelleted cells in 500 μl of lysis buffer (50 mM Tris, 5 mM EDTA, 250 mM NaCl, 50 mM NaF, 0.1% Triton, 0.1 mM Na3VO4, plus protease inhibitors). An equal amount of protein for each fraction (100 μg) was immunoprecipitated with a polyclonal anti-cdk2 antibody (De Luca et al., 1997, J Biol Chem, 272, 20971-4). The complexes were pulled down with protein A-Sepharose and washed three times with lysis buffer and twice with lysis buffer containing 400 mM NaCl. The complexes were equilibrated in kinase assay buffer (20 mM HEPES pH 7.4, 10 mM MgAc, […], 1 mM DTT). In order to detect the in vitro inhibition of cdk2 activity, each sample was incubated with an equal amount (0.1 μg) of each pGEX-2T fusion protein, in a final volume of 20 μl of kinase buffer, using 5 μCi/sample of γ-ATP (Amersham Biosciences, Piscataway, N.J.) and 2 μg of Histone H1 for 30 minutes at 30° C. Kinase assays were repeated at least three times, giving an inter assay standard deviation within 10% after normalization for protein amount. In order to evaluate the in vivo inhibition of cdk2 activity, cdk2 was immunoprecipitated, as described above, from NIH/3T3 cells transiently transfected with 5 μg of pEF6/V5-spacer, pEF6/V5-Spa310 or the vector alone as a control. The immunocomplexes were split in two tubes. A half of each sample was assayed for cdk2 activity in a final volume of 20 μl of kinase buffer with 5 μCi/sample of γ-ATP and 2 μg of Histone H1 for 30 min. at 30° C.; the second one was tested in western blot analysis to confirm that all the samples contained the amount of cdk2 immunoprecipitated. Briefly the samples were separated into 12% SDS polyacrylamide gels (SDS-PAGE), and then transferred into a nitrocellulose membrane (Schleicher & Schuell, Germany). The membrane was blocked with 5% non-fat dry milk in 1×TBST and incubated with the polyclonal anti-cdk2 antibody described above. […]

[2] = test system: NIH/3T3 cells; experiment: cell cycle analysis by flow cytometry (FACS); format: cell-based; conditions: NIH/3T3 transiently transfected, EGFP-gated; 48 h after transfection; propidium iodide
Description: A marker plasmid expressing enhanced green fluorescent protein (EGFP)-spectrin was included in the transfection mixture. Control cells, which were not transfected with EGFP-spectrin, were used as the EGFP-negative population. Cells were harvested and examined for their cell cycle states by fluorescence-activated cell sorter (FACS) analysis. After harvest, cells were fixed by adding ice-cold 70% ethanol while vortexing. Fixed cells were stored at 4° C. for at least 30 min and then washed once with PBS. Cells were then stained with 10 μg/ml propidium iodide (Roche Applied Science, Indianapolis, Ind.), 250 μg/ml RNase (Sigma, St. Louis, Mo.) in PBS and incubated at 37° C. for 30 min in the dark. Transfected cells were gated according to their EGFP expression and the DNA content was determined by flow cytometry analysis. The percentage of cells in the different phases of the cell cycle was measured with a FACS Calibur instrument (Becton-Dickinson, San Jose, Calif.) and the data obtained were analyzed by WinMDI 2.8 software. […]
In FIG. 5a, three plasmids were co-expressed with EGFP-spectrin, in a 1:10 ratio, in transient transfection assays. Cells were harvested 48 hours after transfection, stained with propidium iodide and analyzed by flow cytometric gating for both GFP and propidium iodide. […]

| Molecule | Kinase assay (inhibitory effect on cdk2 activity) [1] | inhibitory effect on cdk2 activity / histone H1 phosphorylation in vitro [1] | effect on cell cycle distribution [2] |
| --- | --- | --- | --- |
| Spa310: pRb2/p130 amino acids 641-679 (39 amino acids long), SEQ ID NO:3; LTPRRVTEVRADTGGLGRSITSPTTLYDRYSSPPASTTR (listed as Homo sapiens) | P | able to maintain the specific inhibitory ability; also recorded: strongly and similarly inhibited cdk2 activity | induced a G0/G1 arrest of the cell cycle |
| Spacer: full-length pRb2/p130 spacer domain, amino acids 616-828 (SEQ ID NO:20) (protein, listed as Homo sapiens) VPTCEEVMPPQNLERADEICIAGSPLTPRRVTEVRADTGGLGRSITSPTTLYDRYSSPPASTTRRRLFVENDSPSDGGTPGRMPPQPLVNAVPVQNVSGETVSVTPVPGQTLVTMATATVTANNGQTVTIPVQGIANENGGITFFPVQVNVGGQAQAVTGSIQPLSAQALAGSLSSQQVTGTTLQVPGQVAIQQISPGGQQQKQGQSVTSSSN | P | strongly and similarly inhibited cdk2 activity | induced a G0/G1 arrest of the cell cycle |
